# In US20100041615A1 (Medac Gesellschaft Fur Klinische Spezialpraparate MBH, priority 2006, published 2010):
# Starred links: 1 amine or outer side, 2 acyl side, 3 side chain; linkers in the order of their positions; H or OH if unused. Non-standard residues stand in square brackets, D forms with d. Residues, ends and D or L forms follow the SMILES beside them. Groups on a side chain read outwards from the residue. *: point of attachment. γ‑MTX = gamma-methotrexate, CN(Cc1cnc2nc(N)nc(N)c2n1)c1ccc(C(=O)N[C@@H](CCC(=O)*)C(=O)O)cc1; DAMPA = CN(Cc1cnc2nc(N)nc(N)c2n1)c1ccc(C(=O)*)cc1; Hexanoyl(6-maleimido) = O=C1C=CC(=O)N1CCCCCC(=O)*; γGlu = O=C(O)[C@H](CCC(=O)[*:2])N[*:1]
# Experiments:
# HSA = HSA (Homo sapiens, UniProt P02768); assay: Bonding to HSA in human plasma (C18-RP-HPLC)
# [1] = synovial fluid of six patients suffering from rheumatoid arthritis; conditions: human (patients suffering from rheumatoid arthritis), 37° C., up to four hours
# human plasma plasmin [2] = assay: human plasma plasmin (370 mU) in buffer (4 mM sodium phosphate, 150 mM NaCl, pH 7.4); conditions: 37° C., up to 20 hours
# human cathepsin B = human cathepsin B (2.1 U) in buffer (50 mM sodium acetate, 100 mM NaCl, 4 mM EDTA*2 Na, 8 mM L-cysteine, pH 5.0); conditions: 37° C., up to 24 hours
# [3] = OVCAR-3 tumor homogenate (homogenate of a human ovarian xenograft); conditions: human ovarian xenograft (OVCAR-3), 37° C., up to four hours
# human plasma plasmin [4] = target: human plasma plasmin (Homo sapiens, UniProt P00747); assay type: biochemical; conditions: pH 7.4
# Description: Preparation of the albumin conjugate: 4.00 mg of EMC-D-Ala-Phe-Lys-Lys(γ-MTX)-OH are dissolved in 8 mL of a 5% HSA solution (Octopharm) at room temperature and shaken at 37° C. for 2 hours. Subsequently, the sample is brought to a concentration of 700 μM by concentration with Centriprep® disposable concentrators.
# Cleavage by plasmin: Now, 100 μL of the solution of the albumin conjugate are diluted with 500 μL buffer (4 mM sodium phosphate, 150 mM NaCl, pH 7.4), 20 μL of human plasma plasmin (370 mU) are added and the mixture is incubated at 37° C. The determination of the cleavage products is performed with the HPLC method described in Example 2 (FIGS. 3 and 4).
# [5] = assay type: in vitro ADME, human
# Description: Preparation of the Tumor Homogenate: The Tumor Material is Comminuted by Means of a scalpel, and 200 mg of the mass are homogenized in a shaker with 800 μL buffer (Tris-buffer pH 7.4) with addition of 3-4 glass beads. Subsequently, centrifugation is carried out at 4° C. and the supernatant is aliquoted to 200 μL.
# Now, 100 μL of the solution of the albumin conjugate EMC-D-Ala-Phe-Lys-Lys(γ-MTX)-OH described in Example 4 are diluted with 500 μL of a homogenate solution (homogenate, 1:2 diluted with buffer [4 mM sodium phosphate, 150 mM NaCl, pH 7.4]) and incubated at 37° C. The determination of the cleavage products is performed with the HPLC method described in Example 2 (FIG. 7).
# [6] = test system: OVCAR-3 (ovarian carcinoma growing subcutaneously); assay: In vivo tumor-inhibiting properties, OVCAR-3 model; set-up: species or system nude mice NMRI; conditions: i.v. day 7, 14, 21, 28; dosage [mg/Kg] MTX equivalents: MTX 4 × 100, AW054-EMC 4 × 15, C175 3 × 15
# Description: Animals: nude mice NMRI; tumor model: OVCAR-3 (ovarian carcinoma growing subcutaneously) Therapy: day 7, 14, 21, 28; i. v. (10 mM sodium phosphate/5% D-glucose buffer pH 6.4); dosages relate to methotrexate equivalents.
# [7] = Cleavage experiments of the albumin conjugates, summary of the examples; assay type: in vitro ADME; conditions: after cleavage of the albumin conjugates
# Description: It becomes evident from the examples that after incubation with human blood plasma, the corresponding albumin conjugate is substantially formed already after 2 min. […] The cleavage results in the formation of e.g. H-Lys(γ-MTX)-OH, which constitutes the only low-molecular cleavage product. […] In the case of the collagen-induced arthritis model, it is about 20% of the corresponding methotrexate equivalent dosage.
# [8] = test system: collagen-induced arthritis model; assay: In vivo antirheumatic properties, collagen-induced arthritis model, therapy day 30-48; set-up: species or system mice (m, DBA/1); conditions: i.v. day 30, 34, 37, 41, 44, 48; dosage [mg/Kg] MTX equivalents: MTX 6 × 35, AW054-EMC 6 × 20
# Description: Animals: mice (m, DBA/1; model: collagen-induced arthritis model) Therapy: day 30, 34, 37, 41, 44, 48; i. v. (10 mM sodium phosphate/5% D-glucose buffer pH 6.4); dosages relate to methotrexate equivalents.
# human blood plasma = conditions: 37° C., up to 24 hours
# [9] = test system: collagen-induced arthritis model; assay: Collagen-induced arthritis model, therapy twice a week as of day 14, 42 or 30 (Table 1: early treatment protocol); assay type: in vivo, mice (m, DBA/1); conditions: 35 mg/kg, n = 15, early treatment protocol
# Description: Animals: mice (m, DBA/1; model: collagen-induced arthritis model) Therapy: twice a week as of day 14, 42 and 30, respectively; i. v. (10 mM sodium phosphate/5% D-glucose buffer pH 6.4); dosages relate to methotrexate equivalents.
# Chain of HSA (P02768 25-609): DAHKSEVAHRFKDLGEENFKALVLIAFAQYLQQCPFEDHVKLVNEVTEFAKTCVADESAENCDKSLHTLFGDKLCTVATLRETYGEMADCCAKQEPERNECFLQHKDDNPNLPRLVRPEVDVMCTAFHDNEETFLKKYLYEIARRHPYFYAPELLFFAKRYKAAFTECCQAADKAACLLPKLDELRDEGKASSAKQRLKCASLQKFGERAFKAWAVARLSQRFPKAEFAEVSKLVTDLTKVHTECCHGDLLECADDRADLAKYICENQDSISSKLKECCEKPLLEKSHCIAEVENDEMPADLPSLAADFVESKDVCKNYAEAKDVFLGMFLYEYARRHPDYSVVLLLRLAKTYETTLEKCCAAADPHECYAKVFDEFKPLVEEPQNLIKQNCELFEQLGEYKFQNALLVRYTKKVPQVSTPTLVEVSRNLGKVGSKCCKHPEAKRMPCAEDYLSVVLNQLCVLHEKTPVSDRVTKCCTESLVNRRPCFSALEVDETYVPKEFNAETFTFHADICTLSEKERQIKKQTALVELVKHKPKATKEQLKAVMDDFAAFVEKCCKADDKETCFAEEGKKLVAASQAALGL
# Chain of human plasma plasmin (Homo sapiens, UniProt P00747) (P00747 581-810 limits assumed): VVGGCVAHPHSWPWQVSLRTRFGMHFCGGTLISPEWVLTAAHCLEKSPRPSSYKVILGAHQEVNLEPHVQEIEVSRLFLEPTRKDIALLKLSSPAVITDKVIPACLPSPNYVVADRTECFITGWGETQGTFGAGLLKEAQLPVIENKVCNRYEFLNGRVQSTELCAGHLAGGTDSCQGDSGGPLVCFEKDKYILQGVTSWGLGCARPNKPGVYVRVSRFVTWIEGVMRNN
# Chain of human plasma plasmin (Homo sapiens, UniProt P00747) (P00747 98-580 partner limits assumed): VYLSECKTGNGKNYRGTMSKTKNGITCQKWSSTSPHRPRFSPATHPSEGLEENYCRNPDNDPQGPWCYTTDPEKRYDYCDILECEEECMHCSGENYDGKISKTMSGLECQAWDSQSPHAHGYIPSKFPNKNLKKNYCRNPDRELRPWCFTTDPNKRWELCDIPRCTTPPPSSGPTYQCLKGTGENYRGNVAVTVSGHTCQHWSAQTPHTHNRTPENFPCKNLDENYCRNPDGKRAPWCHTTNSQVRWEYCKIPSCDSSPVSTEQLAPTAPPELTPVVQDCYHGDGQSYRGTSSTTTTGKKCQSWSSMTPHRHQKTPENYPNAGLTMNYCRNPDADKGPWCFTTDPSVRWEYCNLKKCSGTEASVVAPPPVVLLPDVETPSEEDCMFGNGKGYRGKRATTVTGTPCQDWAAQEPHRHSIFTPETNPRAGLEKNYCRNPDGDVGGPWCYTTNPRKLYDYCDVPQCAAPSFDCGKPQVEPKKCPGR
compound,measurement,setting,value
"CSCC[C@H](NC(=O)[C@H](Cc1ccccc1)NC(=O)[C@H](C)NC(=O)[C@H](CCCNC(=N)N)NC(=O)CCCCCN1C(=O)C=CC1=O)C(=O)N[C@@H](CCCCNC(=O)CC[C@H](NC(=O)c1ccc(N(C)Cc2cnc3nc(N)nc(N)c3n2)cc1)C(=O)O)C(=O)O [C162, EMC-Arg-Ala-Phe-Met-Lys(γ-MTX)-OH] ({Hexanoyl(6-maleimido)}-RAFMK([γGlu-DAMPA])-OH)",bonding of the prodrug to HSA (albumin) in human plasma,"HSA; 200 μM, 2 min incubation with human blood plasma at 37° C., HPLC detection at 300 or 370 nm",almost complete decrease of the prodrug peak
same,bonding of the prodrug to albumin in plasma with blocked cysteine-34-group,"HSA; human blood plasma incubated with EMC (1000 μM) in advance, detection 370 nm",does not show a bonding of the prodrug to albumin
EMC-Arg-Ala-Phe-Met-Lys(γ-MTX)-OH,fragment found,[1],"H-Lys(γ-MTX)-OH, four hours"
HSA-EMC-D-Ala-Phe-Lys-Lys(γ-MTX)-OH,cleaved bond,human plasma plasmin [2],"Lys-Lys, one and four hours, respectively"
same,cleaved bond,human cathepsin B,"Lys-Lys, one and four hours, respectively"
same,fragment found,[3],"H-Lys(γ-MTX)-OH, four hours"
HSA-EMC-D-Ala-Phe-Lys-Lys(γ-MTX)-OH ({HSA-Hexanoyl(6-maleimido)}-[dA]FKK(γ‑MTX)-OH),cleavage by plasmin,human plasma plasmin [4],formation of H-Lys(γ-MTX)-OH as a cleavage product
same,cleavage in OVCAR-3 tumor homogenate,[5],formation of H-Lys(γ-MTX)-OH as a cleavage product can be observed
"CSCC[C@H](NC(=O)[C@H](C)NC(=O)[C@H](CCCNC(=N)N)NC(=O)[C@H](CCCNC(=N)N)NC(=O)CCCCCN1C(=O)C=CC1=O)C(=O)N[C@@H](CCCCNC(=O)CC[C@H](NC(=O)c1ccc(N(C)Cc2cnc3nc(N)nc(N)c3n2)cc1)C(=O)O)C(=O)O [C175, EMC-Arg-Arg-Ala-Met-Lys(γ-MTX)-OH] ({Hexanoyl(6-maleimido)}-RRAMK([γGlu-DAMPA])-OH)",change of body weight [%],[6],+7%
CN(Cc1cnc2nc(N)nc(N)c2n1)c1ccc(C(=O)NC(CCC(=O)NCCCCC(N)C(=O)O)C(=O)O)cc1 (centres unmarked) [H-Lys(γ-MTX)-OH],further cleavage of the cleavage product into MTX and lysine,[7],not cleaved into MTX and lysine any more
"C[C@@H](NC(=O)CCCCCN1C(=O)C=CC1=O)C(=O)N[C@@H](Cc1ccccc1)C(=O)N[C@@H](CCCCN)C(=O)N[C@@H](CCCCNC(=O)CC[C@H](NC(=O)c1ccc(N(C)Cc2cnc3nc(N)nc(N)c3n2)cc1)C(=O)O)C(=O)O [AW054-EMC, EMC-D-Ala-Phe-Lys-Lys(γ-MTX)-OH] ({Hexanoyl(6-maleimido)}-[dA]FKK([γGlu-DAMPA])-OH)",change of body weight [%],[6],+12%
same,change of body weight [%],[8],−0.2%
EMC-D-Ala-Phe-Lys-Lys(γ-MTX)-OH ({Hexanoyl(6-maleimido)}-[dA]FKK([γGlu-DAMPA])-OH; SMILES C[C@@H](NC(=O)CCCCCN1C(=O)C=CC1=O)C(=O)N[C@@H](Cc1ccccc1)C(=O)N[C@@H](CCCCN)C(=O)N[C@@H](CCCCNC(=O)CC[C@H](NC(=O)c1ccc(N(C)Cc2cnc3nc(N)nc(N)c3n2)cc1)C(=O)O)C(=O)O),not cleaved,human blood plasma,loss of MTX is less than 10% after 24 hours
"CN(Cc1cnc2nc(N)nc(N)c2n1)c1ccc(C(=O)N[C@@H](CCC(=O)O)C(=O)O)cc1 [MTX, Methotrexate]",T/C [%] maximum,[6],69%
same,change of body weight [%],[6],+19%
same,"improved or achieved abatement after created disease, figure in parentheses (share of animals)",[9],(53)
same,"improved or achieved abatement after created disease, number of animals",[9],8
same,mean arthritis score at the end of the test,[9],3.1
same,mean period of time until breakout of renewed arthritis after beginning of treatment,[9],17.3 days
same,occurrence of arthritis at the end of the test (%),[9],(60) %
same,"occurrence of arthritis at the end of the test, number of animals",[9],9
same,RA score Tag 55,[8],8.30
same,change of body weight [%],[8],+6.9%
